Results: patent US20120095006A1, “TREATMENT OF PULMONARY HYPERTENSION” (Pfizer Inc., priority 1999, published 2012)

What was measured:
[1] = tested on: corpus cavernosum of the penis; conditions: dog model; cited from earlier work
[2] = tested on: hypoxic pulmonary vasoconstriction in anaesthetized Beagle dogs; test: Hypoxic pulmonary vasoconstriction in anaesthetised dogs, intravenous administration; assay type: in vivo, dog
Description: The anaesthetized dog is the model of choice in which to study the effect of drugs, owing to the similarity between canine and human haemodynamics, and additionally, to ensure cinsistency between pharmacological and toxicological species.
Beagle dogs of either sex were anaesthetized with intravenous sodium pentobarbitone (Sagatal [trademark], 30 to 45 mg/kg) and anesthesia maintained with an infusion of Sagatal (6 mg/kg/h) into the right femoral vein. The dogs were initially intubated via the mouth, and then via a tracheotomy, and artificially respired using an Ugo Basille dog respirator. […] Respiratory gases (inspired O2 and end tidal CO2) were monitored by a Normocap 200 (trademark) respiratory gas monitor (Datex Instrumentarium Corp.). The depth of anesthesia was assessed by carefully monitoring arterial blood pressure and heart rate. […] Pulmonary artery pressure (PAP) and pulmonary artery wedge pressure were recorded from this catheter. This catheter was also connected to a cardiac index computer (Gould Instruments) and cardiac output determined by thermodilution following rapid injection of 5 ml saline at room temperature. […] Lead II ECG was recorded from 2 stainless steel needles inserted subcutaneously in the right arm and left leg. […] All data from the primary signals (PAP, Arterial blood pressure (ABP) and ECG) was recorded on a Po-ne-mah (trademark) data acquisition system. […]

[3] = tested on: hypoxic pulmonary vasoconstriction in anaesthetized dogs; test: Hypoxic pulmonary vasoconstriction in anaesthetised dogs, inhaled administration; assay type: in vivo, dog; conditions: inhaled (nebulised), lowest of doses 30, 80, 230 and 770, hypoxic challenge, FIG. 3
Description: This separate study was performed in analogous fashion to intravenous administration, except that doses were administered into the inspiratory limb of the respiratory circuit using a Penta-sonic Nebuliser (deVilbiss). Each inhaled dose consisted of a timed nebulisation of the solution at a respiration rate of 15 breaths/min finishing 5 min before an hypoxic challenge. Sildenafil and vehicle were administered to a maximum of four dogs per group (i.e. total of eight dogs). At the end of the first vehicle experiment an additional hypoxic challenge was done following administration of an inhaled dose of sildenafil. Doses were made up by dissolving sildenafil in vehicle [sodium acetate buffer (0.038 M)] to the required concentration. Four doses of 30, 80, 230 and 770 microgrammes/weight of dog in kilogrammes were administered.

[4] = tested on: human patients having various causes of pulmonary hypertension; test: Clinical study: continuous sildenafil infusion in patients with pulmonary hypertension, PVR and SVR determined; assay type: in vivo; conditions: infusion to plasma level 100, 300 and 500 ng/ml, FIG. 1
Description: A number of patients having various causes of pulmonary hypertension were selected. The patients were then assessed in order to establish baseline data, including haemodynamic parameters (by right heart catheterization), blood gas profile (via an arterial line and pulse oximetry). The patients were then tested with 40 ppm of nitric oxide (NO) by inhilation for 5 minutes to assess the reversibility of pulmonary hypertension. Haemodynamic parameters were reassessed within 5 minutes of NO and then further assessed 5-20 minutes later. When the pulmonary arterial pressure levels had returned to baseline (+−5%) inhalation haemodynamic parameters were assessed again and patients were continuously infused with sildenafil at rates to control the plasma level at 100, 300 and 500 nanogrammes per milliliter. A few patients received placebo instead of sildenafil in double-blind fashion. Haemodynamic parameters were recorded throughout infusion. From the data collected during the trial, the PVR and SVR were determined.

CCCc1nn(C)c2c(=O)[nH]c(-c3cc(S(=O)(=O)N4CCN(C)CC4)ccc3OCC)nc12 [sildenafil, 5-[2-ethoxy-5-(4-methylpiperazin-1-ylsulfonyl)phenyl]-1,6-dihydro-1-methyl-3-propylpyrazolo[4,3-d]pyrimidin-7-one]
calculated intravenous dose producing half-maximal potentiation (ED50) of nerve-induced pressure rises [1]: 12 microgrammes/kg
effect on SVR compared with effect on PVR ([2]; FIG. 2): significantly lower than on PVP
dose producing maximal effect on PVR (reversing hypoxic pulmonary vasoconstriction) ([2]; lowest of doses 1.5, 4.5, 15 and 45, hypoxic challenge): 1.5 microgrammes/kg
dose producing maximal effect on PVR [3]: 30 microgrammes/kg
effect on PVR [4]: significant reduction in PVR
effect on SVR compared with effect on PVR [4]: substantially lower than the effect on PVR
